Tests used:
[1] = 101 kPa, Liquid
[2] = xn = mol fraction of the nth substance listed; settings: 101 kPa, Liquid

C1CCNC1 [pyrrolidine]
[1]
Settings | kinematic viscosity [m2/s] | mass density [kg/m3]
293.15 K | 9.54e-07 | 859.87
303.15 K | 8.27e-07 | 850.11
313.15 K | 7.43e-07 | 840.24
323.15 K | 6.41e-07 | 833.88

C1CCNC1 [pyrrolidine] + O
[2]
Settings | kinematic viscosity, 293.15 K [m2/s] | kinematic viscosity, 303.15 K [m2/s] | kinematic viscosity, 313.15 K [m2/s] | kinematic viscosity, 323.15 K [m2/s] | mass density, 293.15 K [kg/m3] | mass density, 303.15 K [kg/m3] | mass density, 313.15 K [kg/m3] | mass density, 323.15 K [kg/m3]
x1 = 0.0057 | – | – | – | – | 997.13 | 994.41 | 990.83 | 986.46
x1 = 0.0101 | – | – | – | – | 996.33 | 993.49 | 989.78 | 985.31
x1 = 0.0221 | 1.44e-06 | 1.12e-06 | 8.8e-07 | 7.63e-07 | 994.47 | 991.12 | 986.92 | 982
x1 = 0.0678 | 2.47e-06 | 1.76e-06 | 1.34e-06 | 1.06e-06 | 989.46 | 983.41 | 976.91 | 970.03
x1 = 0.1158 | 3.52e-06 | 2.42e-06 | 1.77e-06 | 1.36e-06 | 980.95 | 973.19 | 965.26 | 957.15
x1 = 0.2076 | 4.53e-06 | 3.15e-06 | 2.27e-06 | 1.73e-06 | 962.31 | 953.57 | 944.65 | 935.51
x1 = 0.3039 | 4.78e-06 | 3.34e-06 | 2.46e-06 | 1.87e-06 | 943.39 | 934.33 | 925.06 | 915.6
x1 = 0.3958 | 4.36e-06 | 3.13e-06 | 2.31e-06 | 1.79e-06 | 928.64 | 919.34 | 909.83 | 900.11
x1 = 0.4834 | 3.64e-06 | 2.73e-06 | 2.08e-06 | 1.61e-06 | 917.04 | 907.58 | 897.92 | 888.05
x1 = 0.5671 | 2.99e-06 | 2.24e-06 | 1.76e-06 | 1.39e-06 | 906.1 | 896 | 886.2 | 877.7
x1 = 0.6858 | 2.13e-06 | 1.71e-06 | 1.37e-06 | 1.12e-06 | 893.17 | 883.53 | 873.7 | 863.68
x1 = 0.8675 | 1.31e-06 | 1.07e-06 | 9.13e-07 | 7.84e-07 | 872.39 | 862.69 | 852.81 | 846.3
x1 = 1 | 9.54e-07 | 8.27e-07 | 7.43e-07 | 6.41e-07 | 859.87 | 850.11 | 840.24 | 833.88
